Experimental data as given in ChEMBL document CHEMBL3603750, “Synthesis and biological evaluation of 9-N-oxamyl sialosides as Siglec-7 ligands” (Bioorg Med Chem, 2015).
pIC50: −log10 of the molar value.

These molecules were tested against T1, Sialic acid-binding Ig-like lectin 7 (Homo sapiens, UniProt Q9Y286) (assay: Binding affinity to human IgG1-fused human Siglec-7-FC (Gln19 to Gly357 residues) assessed as inhibition Siglec-7-Fc binding to RBC pre-incubated for 10 mins before 20 mins incubation with RBCs by flow cytometry).
T1 sequence (Q9Y286 whole entry, the tested form may be a part): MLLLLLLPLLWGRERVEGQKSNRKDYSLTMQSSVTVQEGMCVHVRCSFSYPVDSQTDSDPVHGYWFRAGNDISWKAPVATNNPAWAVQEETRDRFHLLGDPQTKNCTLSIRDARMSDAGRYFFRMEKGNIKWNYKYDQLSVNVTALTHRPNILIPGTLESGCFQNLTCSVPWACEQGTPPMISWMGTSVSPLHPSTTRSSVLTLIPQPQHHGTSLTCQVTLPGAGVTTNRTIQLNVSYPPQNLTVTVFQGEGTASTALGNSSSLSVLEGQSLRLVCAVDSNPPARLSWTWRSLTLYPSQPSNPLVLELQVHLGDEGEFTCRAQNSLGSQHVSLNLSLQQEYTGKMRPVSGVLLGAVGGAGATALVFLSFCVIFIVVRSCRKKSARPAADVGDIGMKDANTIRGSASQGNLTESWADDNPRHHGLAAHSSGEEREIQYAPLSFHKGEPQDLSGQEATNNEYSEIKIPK

| pIC50 | SMILES |
| --- | --- |
| 2.09 | CO[C@]1(C(=O)O)C[C@H](O)[C@@H](NC(C)=O)[C@H]([C@H](O)[C@H](O)CO)O1 |
| 2.78 | CO[C@]1(C(=O)O)C[C@H](O)[C@@H](NC(C)=O)[C@H]([C@H](O)[C@H](O)CNC(=O)C(N)=O)O1 |

These molecules were tested against T1, Sialic acid-binding Ig-like lectin 7 (assay: Potency index, ratio of IC50 for compound-1 to IC50 for test compound for binding affinity to human IgG1-fused human Siglec-7-FC (Gln19 to Gly357 residues) assessed as inhibition Siglec-7-Fc binding to RBC pre-incubated for 10 mins before 20 mins incubation with RBCs by flow cytometry).

| SMILES | Ratio IC50 |
| --- | --- |
| CNC(=O)C(=O)NC[C@@H](O)[C@@H](O)[C@@H]1O[C@@](OC)(C(=O)O)C[C@H](O)[C@H]1NC(C)=O | < 2 |
| CCNC(=O)C(=O)NC[C@@H](O)[C@@H](O)[C@@H]1O[C@@](OC)(C(=O)O)C[C@H](O)[C@H]1NC(C)=O | < 2 |
| CO[C@]1(C(=O)O)C[C@H](O)[C@@H](NC(C)=O)[C@H]([C@H](O)[C@H](O)CNC(=O)C(=O)NCc2ccc(-c3ccccc3)cc2)O1 | 8 |
| CO[C@]1(C(=O)O)C[C@H](O)[C@@H](NC(C)=O)[C@H]([C@H](O)[C@H](O)CNC(=O)C(=O)Nc2ccccc2)O1 | 58 |

Other lines, results leading:

| Ratio IC50 | SMILES |
| --- | --- |
| < 2 | CO[C@]1(C(=O)O)C[C@H](O)[C@@H](NC(C)=O)[C@H]([C@H](O)[C@H](O)CNC(=O)C(=O)NC(C)(C)C)O1 |
| 8 | CO[C@]1(C(=O)O)C[C@H](O)[C@@H](NC(C)=O)[C@H]([C@H](O)[C@H](O)CNC(=O)C(=O)NCc2ccccc2)O1 |
| 1 | CO[C@]1(C(=O)O)C[C@H](O)[C@@H](NC(C)=O)[C@H]([C@H](O)[C@H](O)CO)O1 |
| 4.1 | CO[C@]1(C(=O)O)C[C@H](O)[C@@H](NC(C)=O)[C@H]([C@H](O)[C@H](O)CNC(=O)C(N)=O)O1 |
| < 2 | CO[C@]1(C(=O)O)C[C@H](O)[C@@H](NC(C)=O)[C@H]([C@H](O)[C@H](O)CNC(=O)C(=O)NC(C)C)O1 |
| < 2 | CCC(C)NC(=O)C(=O)NC[C@@H](O)[C@@H](O)[C@@H]1O[C@@](OC)(C(=O)O)C[C@H](O)[C@H]1NC(C)=O (mixture of isomers) |
